Common to all, as to type: biochemical
The target of one test is T1, JAK3 (Homo sapiens, UniProt P52333).
T1 sequence (P52333 1-1124): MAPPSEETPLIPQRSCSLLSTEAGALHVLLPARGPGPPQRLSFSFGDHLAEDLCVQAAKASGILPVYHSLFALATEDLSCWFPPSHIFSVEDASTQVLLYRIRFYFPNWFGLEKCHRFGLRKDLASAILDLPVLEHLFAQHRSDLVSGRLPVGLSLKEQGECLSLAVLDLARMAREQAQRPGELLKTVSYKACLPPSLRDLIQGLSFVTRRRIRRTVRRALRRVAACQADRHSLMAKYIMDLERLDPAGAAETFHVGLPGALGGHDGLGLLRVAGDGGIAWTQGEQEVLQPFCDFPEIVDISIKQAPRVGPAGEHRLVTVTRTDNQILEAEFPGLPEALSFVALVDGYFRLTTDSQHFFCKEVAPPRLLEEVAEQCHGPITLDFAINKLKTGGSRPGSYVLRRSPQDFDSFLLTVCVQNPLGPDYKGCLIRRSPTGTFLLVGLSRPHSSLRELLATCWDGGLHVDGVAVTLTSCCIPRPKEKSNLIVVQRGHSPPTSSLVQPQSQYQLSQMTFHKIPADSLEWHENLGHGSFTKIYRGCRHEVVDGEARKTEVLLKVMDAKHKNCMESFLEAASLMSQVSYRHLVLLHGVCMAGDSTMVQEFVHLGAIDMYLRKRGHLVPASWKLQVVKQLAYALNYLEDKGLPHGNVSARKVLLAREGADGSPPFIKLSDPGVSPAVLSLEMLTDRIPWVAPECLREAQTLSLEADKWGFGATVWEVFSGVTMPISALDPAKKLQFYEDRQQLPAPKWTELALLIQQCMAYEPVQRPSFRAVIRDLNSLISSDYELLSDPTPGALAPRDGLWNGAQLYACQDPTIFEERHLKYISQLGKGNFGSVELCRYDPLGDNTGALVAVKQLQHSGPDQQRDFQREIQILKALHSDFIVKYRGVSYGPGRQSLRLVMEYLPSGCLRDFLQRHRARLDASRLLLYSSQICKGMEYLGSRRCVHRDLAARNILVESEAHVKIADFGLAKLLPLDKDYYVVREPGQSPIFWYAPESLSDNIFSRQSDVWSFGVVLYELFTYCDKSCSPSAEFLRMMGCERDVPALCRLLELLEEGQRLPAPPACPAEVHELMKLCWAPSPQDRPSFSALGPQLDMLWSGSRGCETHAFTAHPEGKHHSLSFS
Nature of the test: JAK3 inhibition assay (standard radioactive enzyme assay). Particulars: average Ki if more than one value determined.

For another test, the target named is JAK2 (Homo sapiens, UniProt O60674). Nature of the test: JAK2 inhibition assay (radioactive enzyme assay, as for JAK3). Conditions: average Ki if more than one value determined. In outline:
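Both kinases: poly(Glu)4Tyr substrate in 100 mM HEPES pH 7.4, 10 mM MgCl2, 1 mM DTT. Run 20 min at 25° C, TCA stop, filter-bound ³³P counted, Ki(app) fitted after background subtraction. JAK3: final [γ-³³P]ATP 5 μM, enzyme added as 2 nM solution. JAK2: final poly(Glu)4Tyr 15 μM, final ATP 12 μM.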

In the next test the target is ROCK (Homo sapiens, UniProt Q13464). Put plainly: ROCK inhibition assay, standard radioactive enzyme assay ("33P"). The procedure: Some compounds were screened for their ability to inhibit ROCK using a standard radioactive enzyme assay. Assays were carried out in a solution containing 100 mM HEPES (pH 7.5), 10 mM MgCl2, 25 mM NaCl, 2 mM DTT, and 1.5% DMSO. Final substrate concentrations in the assay were 13 μM [γ-^33P] ATP (25 mCi ^33P ATP/mmol ATP, Perkin Elmer, Cambridge, Mass./Sigma Chemicals, St Louis, Mo.) and 27 μM Myelin Basic Protein (MBP). Final enzyme concentration in the assay was 5 nM ROCK. Assays were carried out at room temperature. 1.5 μl of DMSO stock containing serial dilutions of the compound of the present invention (concentrations ranging from 10 μM to 2.6 nM) was placed in a 96 well plate. 50 μl of Solution 1 (100 mM HEPES (pH 7.5), 10 mM MgCl2, […]) was added to the plate. The reaction was initiated by addition of 50 μl of Solution 2 (100 mM HEPES (pH 7.5), 10 mM MgCl2, 4 mM DTT, […] and 10 nM ROCK). After 2 hours the reaction was quenched with 50 μL of 30% trichloroacetic acid (TCA, Fisher) containing 9 mM ATP. Transfer of 140 μL of the quenched reaction to a glass fiber filter plate (Corning, Cat. No. 3511) was followed by washing 3 times with 5% TCA. 50 μL of Optima Gold scintillation fluid (Perkin Elmer) was added and the plates were counted on a Top Count (Perkin Elmer). After removing mean background values for all of the data points the data was fit using Prism software to obtain a Ki(app).
ROCK, sequence (Q13464 whole entry): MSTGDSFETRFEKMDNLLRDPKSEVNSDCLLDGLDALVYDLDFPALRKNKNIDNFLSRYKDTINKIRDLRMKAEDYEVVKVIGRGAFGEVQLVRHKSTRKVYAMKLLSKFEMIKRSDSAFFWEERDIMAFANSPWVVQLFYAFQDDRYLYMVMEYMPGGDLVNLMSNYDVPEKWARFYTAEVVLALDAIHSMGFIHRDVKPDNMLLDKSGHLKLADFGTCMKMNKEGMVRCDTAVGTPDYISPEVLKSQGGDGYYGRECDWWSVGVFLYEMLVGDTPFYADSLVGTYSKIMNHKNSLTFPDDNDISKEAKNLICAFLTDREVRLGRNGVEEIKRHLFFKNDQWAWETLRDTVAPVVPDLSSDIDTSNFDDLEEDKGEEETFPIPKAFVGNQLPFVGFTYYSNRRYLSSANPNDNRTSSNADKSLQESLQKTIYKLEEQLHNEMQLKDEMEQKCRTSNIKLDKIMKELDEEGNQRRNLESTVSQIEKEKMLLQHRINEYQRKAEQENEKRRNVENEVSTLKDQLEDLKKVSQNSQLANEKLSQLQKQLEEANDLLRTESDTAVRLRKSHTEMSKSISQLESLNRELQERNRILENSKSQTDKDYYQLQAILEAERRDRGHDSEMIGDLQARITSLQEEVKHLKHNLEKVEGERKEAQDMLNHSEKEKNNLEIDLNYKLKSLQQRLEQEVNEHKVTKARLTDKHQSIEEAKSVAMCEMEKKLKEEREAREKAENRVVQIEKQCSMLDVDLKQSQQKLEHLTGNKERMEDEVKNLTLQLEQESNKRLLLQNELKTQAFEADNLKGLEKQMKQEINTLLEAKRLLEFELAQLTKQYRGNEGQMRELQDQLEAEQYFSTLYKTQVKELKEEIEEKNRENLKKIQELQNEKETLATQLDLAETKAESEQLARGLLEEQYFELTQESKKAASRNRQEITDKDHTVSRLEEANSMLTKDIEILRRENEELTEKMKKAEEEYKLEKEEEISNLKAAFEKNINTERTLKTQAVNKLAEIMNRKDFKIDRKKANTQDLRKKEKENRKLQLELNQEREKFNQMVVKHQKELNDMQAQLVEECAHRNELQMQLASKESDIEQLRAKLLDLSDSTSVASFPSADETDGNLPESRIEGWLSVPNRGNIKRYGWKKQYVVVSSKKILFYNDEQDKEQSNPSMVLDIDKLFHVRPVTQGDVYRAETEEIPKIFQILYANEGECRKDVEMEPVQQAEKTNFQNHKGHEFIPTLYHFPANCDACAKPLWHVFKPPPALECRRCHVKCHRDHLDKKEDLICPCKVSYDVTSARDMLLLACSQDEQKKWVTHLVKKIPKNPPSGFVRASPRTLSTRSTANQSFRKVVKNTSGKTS

SMILES strings stand for the structures. Read-outs that look alike come from different tables or passages of the source.

JAK2, sequence (O60674 whole entry, species assumed): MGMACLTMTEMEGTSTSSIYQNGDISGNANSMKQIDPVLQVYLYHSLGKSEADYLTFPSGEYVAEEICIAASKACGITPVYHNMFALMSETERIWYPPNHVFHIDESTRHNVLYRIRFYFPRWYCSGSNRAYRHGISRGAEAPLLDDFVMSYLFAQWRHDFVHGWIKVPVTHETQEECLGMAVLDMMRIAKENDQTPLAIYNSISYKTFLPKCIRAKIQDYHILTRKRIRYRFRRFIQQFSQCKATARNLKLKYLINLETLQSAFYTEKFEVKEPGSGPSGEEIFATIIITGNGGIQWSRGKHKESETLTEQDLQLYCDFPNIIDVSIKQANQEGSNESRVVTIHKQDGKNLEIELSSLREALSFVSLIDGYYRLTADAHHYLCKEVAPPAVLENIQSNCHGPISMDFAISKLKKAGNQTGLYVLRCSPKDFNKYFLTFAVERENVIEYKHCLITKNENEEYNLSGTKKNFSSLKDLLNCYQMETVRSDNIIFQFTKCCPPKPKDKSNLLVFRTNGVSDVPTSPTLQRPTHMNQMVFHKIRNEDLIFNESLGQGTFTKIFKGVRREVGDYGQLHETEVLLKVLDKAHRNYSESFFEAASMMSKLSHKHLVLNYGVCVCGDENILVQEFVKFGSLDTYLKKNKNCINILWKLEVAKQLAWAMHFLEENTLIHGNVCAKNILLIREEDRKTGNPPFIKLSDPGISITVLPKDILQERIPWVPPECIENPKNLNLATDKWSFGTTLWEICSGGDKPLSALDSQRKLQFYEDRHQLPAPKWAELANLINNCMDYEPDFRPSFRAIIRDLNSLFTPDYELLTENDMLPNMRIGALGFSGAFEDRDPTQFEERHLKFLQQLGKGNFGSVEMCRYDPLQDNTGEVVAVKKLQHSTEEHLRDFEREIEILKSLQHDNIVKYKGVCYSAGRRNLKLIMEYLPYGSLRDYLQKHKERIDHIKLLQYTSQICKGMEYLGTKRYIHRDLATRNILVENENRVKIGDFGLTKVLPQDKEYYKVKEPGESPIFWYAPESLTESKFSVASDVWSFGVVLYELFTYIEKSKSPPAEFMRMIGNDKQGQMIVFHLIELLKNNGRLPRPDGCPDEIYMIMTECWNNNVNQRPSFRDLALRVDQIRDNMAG

For `CN(Cc1ccccc1)c1cc(-c2c[nH]c3ncccc23)ncn1` [Compound 26], the Ki at JAK3, at JAK2 and at ROCK was under 500 nM in each case.

As for `COc1cnc2[nH]cc(-c3cc(NCc4ccccc4)ncn3)c2c1` [Compound 12], the Ki at JAK3, on JAK2 and at ROCK was under 500 nM in each case.

For the compound `c1cncc(CNc2nccc(-c3c[nH]c4ncccc34)n2)c1` [Compound 6], the Ki on JAK3, on JAK2 and at ROCK was under 500 nM in each case.

Regarding `CC(=O)N1CCCN(c2nccc(-c3c[nH]c4ncc(Cl)cc34)n2)CC1` [Compound 5], the Ki at JAK3 was under 500 nM; at JAK2 it was under 500 nM; at ROCK, 500 to 5000 nM.

For `CC(=O)N1CCCN(c2nccc(-c3c[nH]c4ncc(-c5cccnc5)cc34)n2)CC1` [Compound 3], the Ki at JAK3, on JAK2 and at ROCK was under 500 nM in each case.

As to `Fc1ccc(CNc2cc(-c3c[nH]c4ncccc34)ncn2)cc1` [Compound 27], the Ki on JAK3, at JAK2 and at ROCK was under 500 nM in each case.

On to `c1ccc(CNc2ccnc(-c3c[nH]c4ncccc34)n2)cc1` [Compound 11, Benzyl-[2-(1H-pyrrolo[2,3-b]pyridin-3-yl)-pyrimidin-4-yl]amine], for which the Ki on JAK3 (Ki(app)), at JAK2 (Ki(app)) and at ROCK (Ki(app)) was under 500 nM in each case.

In the case of `Fc1cccc(CNc2cc(-c3c[nH]c4ncccc34)ncn2)c1` [Compound 16], the Ki at JAK3, on JAK2 and on ROCK was under 500 nM throughout.

For `C[C@@H]1CCN(Cc2ccccc2)CC1N(C)c1cc(-c2c[nH]c3ncccc23)ncn1` (stereo partly drawn) [Compound 15], the Ki at JAK3, on JAK2 and on ROCK was 500 to 5000 nM throughout.

In the case of `c1ccc(CNc2nccc(-c3c[nH]c4ncc(-c5cccnc5)cc34)n2)cc1` [Compound 2], the Ki was under 500 nM at JAK3, under 500 nM on JAK2 and 500 to 5000 nM on ROCK.

As to `CCS(=O)(=O)N1CCCN(c2nccc(-c3c[nH]c4ncc(OC)cc34)n2)CC1` [Compound 31], the Ki on JAK3, at JAK2 and at ROCK was under 500 nM in each case.

`Fc1cc(F)cc(CNc2cc(-c3c[nH]c4ncccc34)ncn2)c1` [Compound 29]: the Ki on JAK3, at JAK2 and on ROCK was under 500 nM in each case.

For the compound `CC(=O)N1CCCN(c2nccc(-c3c[nH]c4ncc(C(N)=O)cc34)n2)CC1` [Compound 1], the Ki on JAK3 is under 500 nM; at JAK2, under 500 nM; on ROCK it was 500 to 5000 nM.

`C[C@@H]1CCNCC1N(C)c1cc(-c2c[nH]c3ncccc23)ncn1` (stereo partly drawn) [Compound 17]: the Ki on JAK3 is 500 to 5000 nM; at JAK2, 500 to 5000 nM; at ROCK it was under 500 nM.

As for `COc1cnc2[nH]cc(-c3cc(N[C@H](C)c4ccccc4)ncn3)c2c1` [Compound 13], the Ki on JAK3 was under 500 nM; on JAK2, under 500 nM; at ROCK, 500 to 5000 nM.

With `Clc1cccc(CNc2cc(-c3c[nH]c4ncccc34)ncn2)c1` [Compound 21], the Ki at JAK3, at JAK2 and at ROCK was under 500 nM in each case.

Regarding `FC(F)(F)c1cccc(CNc2cc(-c3c[nH]c4ncccc34)ncn2)c1` [Compound 22], the Ki at JAK3, at JAK2 and on ROCK was under 500 nM throughout.

As to `c1ccc(-c2cccc(CNc3cc(-c4c[nH]c5ncccc45)ncn3)c2)cc1` [Compound 23], the Ki at JAK3 is 500 to 5000 nM; at JAK2, 500 to 5000 nM; on ROCK it was under 500 nM.

The values above are taken from patent US8501446B2 (Vertex Pharmaceuticals Incorporated, priority 2004, dated 2013).
